Values joined by “and” are separate entries in the source; they are usually repeats but may differ in a detail not shown here. Equal entries are not always repeated. Inconclusive results are not listed. Active and inactive are the calls of the source.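 How the source made its calls: active means valid dose-response fit whose half-maximal growth-inhibiting concentration is at or below a set limit above the top tested dose; inconclusive means flat fit with effect between 30 and 70%, or poor fit; inactive means half-maximal concentration above a set limit.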

Results on 40 compounds are retold here after PubChem BioAssay AID1259246 (Broad Institute, 2017).

The first experiment in a line: antibacterial activity against Clostridioides difficile – 10-point retest, dose response (AID 1259246). As to conditions: Clostridioides difficile clinical isolate growth, OD600, 24 h; at 60 µM (top of the series).
Regarding `O=C(C[C@H]1C[C@@H]2c3cc(NC(=O)C4CCC4)ccc3O[C@@H]2[C@@H](CO)O1)NCCc1ccccc1`, the activity change, negative = inhibition was 0.211% (inactive).
`O=C(C[C@H]1C[C@@H]2c3cc(NC(=O)Nc4ccc(F)cc4)ccc3O[C@@H]2[C@@H](CO)O1)NC1CCCCC1`: the activity change, negative = inhibition is 0.486% (inactive).
On the same count and under the same terms, with `N#C[C@@H]1[C@@H](c2ccc(C#Cc3ccccc3F)cc2)[C@H](CO)N1C(=O)C1CCCCC1` the figure was 9.57% (inactive); with `COc1ccccc1-c1ccc2c(c1)O[C@H](CN(C)Cc1ccc3c(c1)OCO3)[C@H](C)CN([C@H](C)CO)S2(=O)=O`, -2.89% (inactive); with `C[C@H]1CN([C@@H](C)CO)S(=O)(=O)c2ccc(C#CC3CCCC3)cc2O[C@@H]1CN(C)Cc1cccnc1`, 7.15% (inactive).
On the same count and under the same terms, with `COCC#Cc1ccc2c(c1)O[C@H](CN(C)Cc1ccc3c(c1)OCO3)[C@H](C)CN([C@H](C)CO)S2(=O)=O` the figure was 10.3% (inactive); with `COc1ccccc1CNC(=O)C[C@H]1C[C@@H]2c3cc(NC(=O)C4CCC4)ccc3O[C@@H]2[C@@H](CO)O1`, 2.54% (inactive); with `C[C@H](CO)N1C[C@H](C)[C@@H](CN(C)S(C)(=O)=O)OCCCC[C@H](C)Oc2ccc(NC(=O)Nc3cccc4ccccc34)cc2C1=O`, 9.57% (inactive).
`O=C(C[C@@H]1C[C@H]2c3cc(NC(=O)C4CCC4)ccc3O[C@H]2[C@H](CO)O1)NCc1ccc(Cl)cc1`: the activity change, negative = inhibition is -4.77% (inactive).

Staying with this experiment, now noted: Clostridioides difficile clinical isolate growth, OD600, 24 h; at 120 µM (top of the series).
As to `CC(C)CC#Cc1ccc2c(c1)O[C@H](CN(C)Cc1ccc(F)cc1)[C@H](C)CN([C@H](C)CO)S2(=O)=O`, the activity change, negative = inhibition is 28% (inactive) and 85.7% (inactive).
On to `C[C@@H]1CN([C@@H](C)CO)C(=O)c2cccc(NC(=O)Nc3ccc4c(c3)OCO4)c2O[C@@H]1CN(C)Cc1ccccc1`, for which the activity change, negative = inhibition is 19.1% (inactive).
Still for that read-out and setting: as for `C[C@@H]1CN([C@H](C)CO)C(=O)Cc2cc(N(C)C)ccc2O[C@@H]1CN(C)Cc1ccc(-c2ccccc2)cc1`, the figure is 22.5% (inactive); as for `CC(C)CC#Cc1ccc2c(c1)O[C@H](CN(C)CC1CCOCC1)[C@H](C)CN([C@H](C)CO)S2(=O)=O`, 14.5% (inactive).
On the same count and under the same terms, with `C[C@@H]1CN([C@H](C)CO)C(=O)c2cccc(NC(=O)Nc3ccc4c(c3)OCO4)c2O[C@H]1CN(C)Cc1ccc(-c2ccccc2)cc1` the figure was 6.58% (inactive).
On the same count and under the same terms, as for `CC1=CC2(CO)C(=O)[C@]3(CO3)[C@H]1[C@H]1[C@]2(C)C=C(CO)C(=O)[C@]12CO2`, the figure is 10.8% (inactive); as for `C[C@@H]1CN([C@H](C)CO)C(=O)c2cccc(NC(=O)Nc3ccccc3)c2O[C@H]1CN(C)Cc1ccc(Oc2ccccc2)cc1`, 17.8% (inactive).
As for `CNC[C@@H]1Oc2ccc(NC(=O)CCCN(C)C)cc2CC(=O)N([C@H](C)CO)C[C@H]1C`, the activity change, negative = inhibition is 2.33% (inactive).
The same measure, in the same setting: as for `C[C@H]1CN([C@@H](C)CO)C(=O)c2cccc(NC(=O)Nc3ccc(C(F)(F)F)cc3)c2O[C@@H]1CN(C)C(=O)NC1CCCCC1`, the figure is 19.5% (inactive); as for `C[C@@H]1CN([C@@H](C)CO)S(=O)(=O)c2ccc(C#CC3CCCCC3)cc2O[C@H]1CN(C)Cc1cccnc1`, 17.6% (inactive).
Same read-out and setting: as for `C[C@H](CO)N1C[C@H](C)[C@@H](CN(C)C(=O)Cc2cccnc2)Oc2cc(C#Cc3ccccc3F)ccc2S1(=O)=O`, the figure is 40.8% (inactive); as for `C/C=C/c1ccc2c(c1)O[C@@H](CN(C)Cc1ccc(C(=O)O)cc1)[C@H](C)CN([C@@H](C)CO)S2(=O)=O`, -3.63% (inactive).
With `C[C@@H]1CN([C@H](C)CO)C(=O)Cc2cc(NC(=O)C3CC3)ccc2O[C@H]1CN(C)Cc1ccc(Oc2ccccc2)cc1`, the activity change, negative = inhibition is 20.2% (inactive).
Take `C[C@@H]1CN([C@@H](C)CO)C(=O)Cc2cc(NC(=O)CCCN(C)C)ccc2O[C@H]1CN(C)C(=O)Nc1ccccc1`: the activity change, negative = inhibition is -1.61% (inactive).
For `C[C@H]1CN([C@@H](C)CO)S(=O)(=O)c2ccc(C#Cc3ccccc3F)cc2O[C@@H]1CN(C)C`, the activity change, negative = inhibition is 10.1% (inactive).
The same measure, in the same setting: with `COc1ccc(NC(=O)Nc2cccc3c2O[C@@H](CN(C)Cc2ccc(Oc4ccccc4)cc2)[C@@H](C)CN([C@@H](C)CO)C3=O)cc1` the figure was 30.5% (inactive); with `CO[C@H]1CN(C)C(=O)c2cc(NC(=O)Nc3ccc4c(c3)OCO4)ccc2OC[C@H](C)NC[C@H]1C`, -6.51% (inactive).
On the same count and under the same terms, with `CC(C)CC#Cc1ccc2c(c1)O[C@@H](CN(C)Cc1ccc3c(c1)OCO3)[C@H](C)CN([C@@H](C)CO)S2(=O)=O` the figure was 11% (inactive); with `CC(C)CC#Cc1ccc2c(c1)O[C@H](CN(C)Cc1ccc(F)cc1)[C@H](C)CN([C@@H](C)CO)S2(=O)=O`, 34.5% (inactive).
Same read-out and setting: as for `C[C@@H]1CN([C@@H](C)CO)S(=O)(=O)c2ccc(/C=C/c3ccccc3)cc2O[C@H]1CN(C)C(=O)Nc1ccc(F)cc1`, the figure is 32.6% (inactive).
Regarding `C[C@@H]1CN([C@@H](C)CO)C(=O)Cc2cc(NC(=O)C3CC3)ccc2O[C@H]1CN(C)Cc1ccc(-c2ccccc2)cc1`, the activity change, negative = inhibition was 25% (inactive).
For the compound `CNC[C@H]1Oc2c(NC(=O)Nc3ccc4c(c3)OCO4)cccc2C(=O)N([C@@H](C)CO)C[C@H]1C`, the activity change, negative = inhibition was 4.27% (inactive).
Turning to `O=C(C[C@@H]1C[C@@H]2c3cc(NC(=O)Nc4ccc(F)cc4)ccc3O[C@@H]2[C@@H](CO)O1)NC1CCCCC1`, the activity change, negative = inhibition was -8.47% (inactive).
On the same count and under the same terms, as for `Cc1ccc(-c2ccc3c(c2)O[C@@H](CN(C)Cc2cccnc2)[C@H](C)CN([C@@H](C)CO)S3(=O)=O)cc1`, the figure is 10.2% (inactive).
On the same count and under the same terms, with `C[C@@H]1CN([C@H](C)CO)C(=O)Cc2cc(NC(=O)CCCN(C)C)ccc2O[C@H]1CN(C)C` the figure was 0.476% (inactive); with `CC(C)NC(=O)Nc1ccc2c(c1)CC(=O)N([C@H](C)CO)C[C@@H](C)[C@@H](CN(C)Cc1ccc(-c3ccccc3)cc1)O2`, 20.5% (inactive).

The experiment is the same for the next values; noted with them: Clostridioides difficile clinical isolate growth, OD600, 24 h; at 135 µM (top of the series).
In the case of `C[C@@H]1CN([C@@H](C)CO)C(=O)Cc2cc(NC(=O)C3CC3)ccc2O[C@@H]1CN(C)Cc1ccccc1`, the activity change, negative = inhibition is 0.355% (inactive).
The same measure, in the same setting: with `COc1ccc(S(=O)(=O)N(C)C[C@H]2Oc3ccc(NC(=O)C4CC4)cc3CC(=O)N([C@H](C)CO)C[C@H]2C)cc1` the figure was -2.76% (inactive); with `C[C@H]1CN([C@@H](C)CO)C(=O)Cc2cc(NC(=O)C3CC3)ccc2O[C@@H]1CN(C)Cc1ccc(Oc2ccccc2)cc1`, 17.9% (inactive); with `O=C(C[C@H]1C[C@@H]2c3cc(NC(=O)C4CCC4)ccc3O[C@@H]2[C@@H](CO)O1)NCc1ccc2c(c1)OCO2`, -9.69% (inactive).
On the same count and under the same terms, as for `C[C@@H]1CN([C@@H](C)CO)C(=O)c2cc(NC(=O)Nc3cccc4ccccc34)ccc2O[C@@H](C)CCCCO[C@@H]1CN(C)S(=O)(=O)c1ccc(F)cc1`, the figure is 17.6% (inactive).
